Read-outs that look alike come from different tables or passages of the source.
How the values were obtained:
CS = target: T1, CS (Homo sapiens, UniProt O75390); test: Tryptophan fluorescence quenching assay; format: binding
T1 sequence (O75390 28-466): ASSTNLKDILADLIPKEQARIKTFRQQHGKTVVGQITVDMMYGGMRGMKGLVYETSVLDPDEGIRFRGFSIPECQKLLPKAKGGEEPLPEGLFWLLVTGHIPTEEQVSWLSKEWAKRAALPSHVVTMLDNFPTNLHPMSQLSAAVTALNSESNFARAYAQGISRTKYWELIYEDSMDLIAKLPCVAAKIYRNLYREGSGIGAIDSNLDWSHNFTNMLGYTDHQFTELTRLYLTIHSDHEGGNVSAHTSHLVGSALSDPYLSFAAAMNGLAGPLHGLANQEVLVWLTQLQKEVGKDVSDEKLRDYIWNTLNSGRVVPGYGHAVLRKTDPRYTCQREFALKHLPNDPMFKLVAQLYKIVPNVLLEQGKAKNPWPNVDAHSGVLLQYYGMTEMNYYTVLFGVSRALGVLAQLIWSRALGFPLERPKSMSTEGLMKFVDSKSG
Experimental: FIG. 5A is a volcano plot (ΔTm, p-value) for TPP data obtained from NCI-H460 cells with 4 μM AGB treatment for 1 h. The criteria were set as ΔTm>2° C. and p<0.05. FIG. 5B is a graph showing results of the tryptophan fluorescence quenching assay for the direct interaction between AGB and three target proteins. Upper, tryptophan fluorescence titration of recombinant proteins with AGB. […] For CS, its fluorescence decrease was saturated when AGB concentrations increased to about 32 μM. Lower, the normalized tryptophan intensities at an emission of 320 nm were plotted as a function of total added concentration of AGB. The dissociation constants (Kd) between AGB and three proteins were then calculated by fitting this plot with Stern-Volmer Equation. […] The fluorescence intensity was presented as percentage relative to control groups. […]
To further examine whether AGB interacts directly with the above three identified proteins, the intrinsic tryptophan fluorescence properties of these proteins were examined in the presence of AGB at different concentrations. Upon binding with AGB, proteins experience a change of the tryptophan environment, which can be visualized by fluorescence spectroscopy. As shown in FIG. 5B the tryptophan fluorescence of three proteins were all quenched by AGB in a concentration-dependent manner.

NCI-H460 spheres = test: Sphere formation assay (tumorsphere self-renewal); format: cell-based; conditions: Homo sapiens, read-out: tumorsphere forming efficiency, inhibition; for inhibition at 1 µM: 1.0 μM AGB
Experimental: NCI-H460 cells were seeded at 3,000 cells/ml per well in specific sphere formation medium (DMEM/F12 supplemented with 20 ng/ml EGF, 20 ng/ml bFGF and 1×B-27) with or without AGB (DMSO as vehicle, 0.5 and 1.0 μM of AGB for the assay) in a 6-well Ultra Low Cluster Plate (Costar®). The concentration of DMSO was normalized to 0.5% in all wells and was 0.5%. The cells were incubated at 37° C. for five days and the spheres were photographed under an inverted microscope at 40× magnification. Primary tummorsphere were collected and enzymatically dissociated using trypsin to generate the secondary tummorsphere. The dissociated cells were re-plated at a density of 2,000 cells/mL for subsequent passages. The images were captured and four fields were randomly chosen and the relative areas occupied by the spheres were measured using ImageJ (National Institutes of Health, Bethesda, MD). Representative images were obtained from three independent experiments.

[1] = test system: U2OS cells transfected with mitochondrial-RFP reporter gene; test: Time-lapse microscopy of mitochondrial morphology; format: cell-based, human; conditions: 30 hour, 4 μM AGB treatment
Experimental: Another cluster highlighted in the ProTargetMiner analysis was related to mitochondrial translation and respiration function. Time-lapse microscopy was used to monitor the changes of mitochondrial morphology during a 30 hour, 4 μM AGB treatment using U2OS cells transfected with mitochondrial-RFP reporter gene (data not shown). AGB indeed triggers dynamic changes of mitochondria. As shown in the movie recorded using time-lapse microscopy (data not shown), about 5 hours after the start of the imaging, mitochondria changed to a thread-like, very elongated morphology. Then the threads slowly broke up. At about 10 h, the mitochondria became small dots and these dots got brighter. At the end of the movie (about 30 h treatment), some cells underwent mitochondrial outer membrane permeabilization (the abrupt loss of fluorescence in mitochondria) and died.

[2] = test system: cancer stem cells (NCI-H460 tumorspheres); test: MTT assay on tumorspheres (cancer stem cells); format: cell-based; conditions: Homo sapiens, 72-h treatment
Experimental: For IC50 determination of sphere, similar procedures were performed as mentioned above. Briefly, cells were plated in 96-well clear flat bottom ultra-low attachment cell culture plates (Corning®) with a density of 5*10^3 cells into each well with specific sphere formation medium (DMEM/F12 medium supplemented with 20 ng/mL EGF, 20 ng/mL bFGF, 2% B27). The cells were then treated with AGB at different concentrations, ranging from 0.3 to 100 μM. After 3 days of treatment, the formed tumorspheres in each well were monitored under microscope. The MTT was then applied to determine the cell viability and the cell viability of AGB-treatment group was calculated via normalization to control groups and the IC50 value was calculated from the plot curve that fitted to a Boltzmann sigmoidal function.

## CCCC(=O)c1c(O)c(Cc2c(O)c(Cc3c(O)c(C)c(OC)c(C(=O)CCC)c3O)c(O)c(C(=O)[C@@H](C)CC)c2O)c(O)c(C)c1OC [AGB, Agrimol B]
CS; Stern-Volmer analysis, read-out: Kd of AGB binding to CS
  Kd: 4.9 µM
CS; tryptophan fluorescence titration
  AGB concentration at which the CS fluorescence decrease was saturated: about 32 μM
NCI-H460 spheres; NCI-H460, primary tumorspheres
  inhibition at 1 µM: 40.6%
NCI-H460 spheres; NCI-H460, secondary tumorspheres, 0.5 μM AGB
  inhibition at 0.5 µM: 54.7%
NCI-H460 spheres; NCI-H460, secondary tumorspheres
  inhibition at 1 µM: 69.7%
[1]
  mitochondrial morphology: cells underwent a mitochondrial fission
[2]
  IC50: 4 µM
